Test results published in ChEMBL document CHEMBL4229341, “3-Hydroxy-1,5-dihydro-2H-pyrrol-2-ones as novel antibacterial scaffolds against methicillin-resistant Staphylococcus aureus” (2018).
≈ marks a conversion by molar mass, not a printed value.

Legend:
Type in all cases: functional
Staphylococcus aureus [1] = experiment: Antibacterial activity against methicillin resistant Staphylococcus aureus ATCC 33591 after 16 to 20 hrs by CLSI method
Staphylococcus aureus [2] = experiment: Antibacterial activity against methicillin resistant Staphylococcus aureus BAA-44 after 16 to 20 hrs by CLSI method
Staphylococcus aureus [3] = experiment: Antibacterial activity against linezolid/methicillin resistant Staphylococcus aureus NR 45924 after 16 to 20 hrs by CLSI method
Staphylococcus aureus [4] = experiment: Antibacterial activity against methicillin resistant Staphylococcus aureus NR 45898 after 16 to 20 hrs by CLSI method
Staphylococcus aureus [5] = experiment: Antibacterial activity against methicillin resistant Staphylococcus aureus NR 45906 after 16 to 20 hrs by CLSI method
Staphylococcus aureus [6] = experiment: Antibacterial activity against linezolid/methicillin resistant Staphylococcus aureus NR 45926 after 16 to 20 hrs by CLSI method
Staphylococcus aureus [7] = experiment: Antibacterial activity against methicillin resistant Staphylococcus aureus NR 45913 after 16 to 20 hrs by CLSI method
Staphylococcus aureus [8] = experiment: Antibacterial activity against methicillin resistant Staphylococcus aureus ATCC 43300 after 16 to 20 hrs by CLSI method
[9] = system: Staphylococcus epidermidis; experiment: Antibacterial activity against methicillin resistant Staphylococcus epidermidis ATCC 51625 after 16 to 20 hrs by CLSI method
[10] = system: Staphylococcus epidermidis; experiment: Antibacterial activity against methicillin resistant Staphylococcus epidermidis NR 46386 after 16 to 20 hrs by CLSI method
Staphylococcus aureus [11] = experiment: Antibacterial activity against methicillin resistant Staphylococcus aureus BAA-1685 after 16 to 20 hrs by CLSI method

Q: Which MIC (Staphylococcus aureus [1]) does the source give for `CCC1NC(=O)C(O)=C1c1ccc(C(F)(F)F)cc1` (racemic) here?
A: 128 µg/mL (≈ 472 µM)

Q: `CCC1C(c2ccc(C(F)(F)F)cc2)=C(O)C(=O)N1C` (racemic) was tested. Which MIC (Staphylococcus aureus [1]) did it give?
A: 64 µg/mL (≈ 224 µM)

Q: How did the MIC (Staphylococcus aureus [1]) turn out when `CCC1C(c2ccc(C(F)(F)F)cc2)=C(O)C(=O)N1CCCCO` (racemic) was run?
A: > 128 µg/mL

Q: For `O=C1C(O)=C(c2ccc(F)cc2)C2CCCN12` (racemic), which MIC (Staphylococcus aureus [1]) is on record?
A: > 128 µg/mL

Q: How did the MIC (Staphylococcus aureus [1]) turn out when `O=C1C(O)=C(c2ccc(Cl)cc2)C2CCCCN12` (racemic) was run?
A: > 128 µg/mL

Q: `CCC1C(c2ccc(C(F)(F)F)cc2)=C(O)C(=O)N1c1ccccc1` (racemic) was tested. Which MIC (Staphylococcus aureus [2]) did it give?
A: 32 µg/mL (≈ 92.1 µM)

Q: And the MIC (Staphylococcus aureus [1])?
A: 8 µg/mL (≈ 23 µM)

Q: What about the MIC (Staphylococcus aureus [3]) of the same molecule?
A: 16 µg/mL (≈ 46.1 µM)

Q: What about the MIC (Staphylococcus aureus [4]) of the same molecule?
A: 8 µg/mL (≈ 23 µM)

Q: And the MIC (Staphylococcus aureus [5])?
A: 8 µg/mL (≈ 23 µM)

Q: And the MIC (Staphylococcus aureus [6])?
A: 8 µg/mL (≈ 23 µM)

Q: And the MIC (Staphylococcus aureus [7])?
A: 8 µg/mL (≈ 23 µM)

Q: And the MIC (Staphylococcus aureus [8])?
A: 64 µg/mL (≈ 184 µM)

Q: What about the MIC [9] of the same molecule?
A: 8 µg/mL (≈ 23 µM)

Q: And the MIC [10]?
A: 4 µg/mL (≈ 11.5 µM)

Q: What about the MIC (Staphylococcus aureus [11]) of the same molecule?
A: 32 µg/mL (≈ 92.1 µM)

Q: Which MIC (Staphylococcus aureus [1]) does the source give for `CCC1C(c2ccc(C(F)(F)F)cc2)=C(O)C(=O)N1Cc1ccc(OC)cc1OC` (racemic) here?
A: 32 µg/mL (≈ 75.9 µM)

Q: How did the MIC (Staphylococcus aureus [1]) turn out when `CCC1C(c2ccc(C(F)(F)F)cc2)=C(O)C(=O)N1Cc1ccc(-c2ccccc2)cc1` (racemic) was run?
A: 64 µg/mL (≈ 146 µM)

Q: `O=C1C(O)=C(c2ccc(Cl)cc2)C2CCCN12` (racemic) was tested. Which MIC (Staphylococcus aureus [1]) did it give?
A: > 128 µg/mL

Q: With `CCCCCCN1C(=O)C(O)=C(c2ccc(C(F)(F)F)cc2)C1CCCC` (racemic) as the molecule, how does the MIC (Staphylococcus aureus [1]) read?
A: 32 µg/mL (≈ 83.5 µM)

Q: With `CC1CCN2C(=O)C(O)=C(c3ccc(C(F)(F)F)cc3)C2C1` (racemic) as the molecule, how does the MIC (Staphylococcus aureus [1]) read?
A: 128 µg/mL (≈ 411 µM)

Q: `Cc1ccc(C2=C(O)C(=O)N3CCCCC23)cc1` (racemic) was tested. Which MIC (Staphylococcus aureus [1]) did it give?
A: > 128 µg/mL

Q: `CCC1C(c2ccc(C(F)(F)F)cc2)=C(O)C(=O)N1CC(C)C` (racemic) was tested. Which MIC (Staphylococcus aureus [1]) did it give?
A: 16 µg/mL (≈ 48.9 µM)

Q: Which results are given for `CCC1C(c2ccc(C(F)(F)F)cc2)=C(O)C(=O)N1Cc1ccccc1` (racemic)?
A: MIC (Staphylococcus aureus [2]): 64 µg/mL (≈ 177 µM); MIC (Staphylococcus aureus [1]): 8 µg/mL (≈ 22.1 µM); MIC (Staphylococcus aureus [3]): 32 µg/mL (≈ 88.6 µM); MIC (Staphylococcus aureus [4]): 16 µg/mL (≈ 44.3 µM); MIC (Staphylococcus aureus [5]): 8 µg/mL (≈ 22.1 µM); MIC (Staphylococcus aureus [6]): 16 µg/mL (≈ 44.3 µM); MIC (Staphylococcus aureus [7]): 16 µg/mL (≈ 44.3 µM); MIC (Staphylococcus aureus [8]): 32 µg/mL (≈ 88.6 µM); MIC [9]: 8 µg/mL (≈ 22.1 µM); MIC [10]: 8 µg/mL (≈ 22.1 µM); MIC (Staphylococcus aureus [11]): 32 µg/mL (≈ 88.6 µM)

Q: Which MIC (Staphylococcus aureus [1]) does the source give for `C=CCN1C(=O)C(O)=C(c2ccc(C(F)(F)F)cc2)C1CC` (racemic) here?
A: 32 µg/mL (≈ 103 µM)

Q: `CCC1C(c2ccc(C(F)(F)F)cc2)=C(O)C(=O)N1Cc1ccc(C(F)(F)F)cc1` (racemic) was tested. Which MIC (Staphylococcus aureus [1]) did it give?
A: 32 µg/mL (≈ 74.5 µM)

Q: With `CCCCCCN1C(=O)C(O)=C(c2ccc(C(F)(F)F)cc2)C1CCc1ccccc1` (racemic) as the molecule, how does the MIC (Staphylococcus aureus [1]) read?
A: 64 µg/mL (≈ 148 µM)

Q: For `C#CCN1C(=O)C(O)=C(c2ccc(C(F)(F)F)cc2)C1CC` (racemic), which MIC (Staphylococcus aureus [1]) is on record?
A: 32 µg/mL (≈ 103 µM)

Q: How did the MIC (Staphylococcus aureus [1]) turn out when `Cc1ccc(C2=C(O)C(=O)N3CCCC23)cc1` (racemic) was run?
A: 128 µg/mL (≈ 558 µM)

Q: For `CCCCCCN1C(=O)C(O)=C(c2ccc(C(F)(F)F)cc2)C1CC` (racemic), which MIC (Staphylococcus aureus [2]) is on record?
A: 64 µg/mL (≈ 180 µM)

Q: And the MIC (Staphylococcus aureus [1])?
A: 2 µg/mL (≈ 5.63 µM)

Q: What about the MIC (Staphylococcus aureus [3]) of the same molecule?
A: 64 µg/mL (≈ 180 µM)

Q: And the MIC (Staphylococcus aureus [4])?
A: 32 µg/mL (≈ 90 µM)

Q: What about the MIC (Staphylococcus aureus [5]) of the same molecule?
A: 4 µg/mL (≈ 11.3 µM)

Q: What about the MIC (Staphylococcus aureus [6]) of the same molecule?
A: 32 µg/mL (≈ 90 µM)

Q: And the MIC (Staphylococcus aureus [7])?
A: 32 µg/mL (≈ 90 µM)

Q: What about the MIC (Staphylococcus aureus [8]) of the same molecule?
A: 64 µg/mL (≈ 180 µM)

Q: What about the MIC [9] of the same molecule?
A: 4 µg/mL (≈ 11.3 µM)

Q: What about the MIC [10] of the same molecule?
A: 8 µg/mL (≈ 22.5 µM)

Q: What about the MIC (Staphylococcus aureus [11]) of the same molecule?
A: 64 µg/mL (≈ 180 µM)

Q: `CC[C@H]1OC(=O)[C@H](C)[C@@H](O[C@H]2C[C@@](C)(OC)[C@@H](O)[C@H](C)O2)[C@H](C)[C@@H](O[C@@H]2O[C@H](C)C[C@H](N(C)C)[C@H]2O)[C@](C)(O)C[C@@H](C)C(=O)[C@H](C)[C@@H](O)[C@]1(C)O` [ERYTHROMYCIN] was tested. Which MIC (Staphylococcus aureus [3]) did it give?
A: 0.5 µg/mL (≈ 0.681 µM)

Q: And the MIC (Staphylococcus aureus [6])?
A: 0.5 µg/mL (≈ 0.681 µM)

Q: Which MIC (Staphylococcus aureus [2]) does the source give for `CC(=O)NC[C@H]1CN(c2ccc(N3CCOCC3)c(F)c2)C(=O)O1` [LINEZOLID] here?
A: 1 µg/mL (≈ 2.96 µM)

Q: What about the MIC (Staphylococcus aureus [1]) of the same molecule?
A: 1 µg/mL (≈ 2.96 µM)

Q: And the MIC (Staphylococcus aureus [4])?
A: 0.5 µg/mL (≈ 1.48 µM)

Q: What about the MIC (Staphylococcus aureus [7]) of the same molecule?
A: 0.5 µg/mL (≈ 1.48 µM)

Q: And the MIC (Staphylococcus aureus [8])?
A: 1 µg/mL (≈ 2.96 µM)

Q: And the MIC [9]?
A: 0.25 µg/mL (≈ 0.741 µM)

Q: And the MIC [10]?
A: 0.25 µg/mL (≈ 0.741 µM)

Q: And the MIC (Staphylococcus aureus [11])?
A: 1 µg/mL (≈ 2.96 µM)
